Legend:
[1] = target: T1, rat EP2 prostaglandin E2 receptor (Rattus norvegicus, UniProt Q62928); assay: Rat EP2 receptor binding assay (displacement of 3H-prostaglandin E2); details: 293S cell membranes expressing rat EP2, 3 nM 3H-prostaglandin E2, 1 hour at 25° C.
T1 construct: This full length receptor is used to prepare 293S cells expressing the EP2 receptor; expressed in transfected cells; membranes used in the assay
Text: Rat EP2 Recptor Binding Assay
Assay for Binding to Prostaglandin E2 Receptors
The full length EP2 receptor is made as disclosed in Nemoto et al., Prostaglandins and other Lipid Mediators, 1997, 54, 713-725. This full length receptor is used to prepare 293S cells expressing the EP2 receptor.
293S cells expressing the rat EP2 prostaglandin E2 receptor are generated according to methods known to those skilled in the art. Typically, PCR (polymerase chain reaction) primers corresponding to the 5′ and 3′ ends of the published full length receptor are made according to the well known methods disclosed above and are used in an RT-PCR reaction using the total RNA from rat kidney as a source. […]
Membrane Preparation: All operations are performed at 4° C. […] Pelleted membranes are resuspended to 3-10 mg protein per ml, protein concentration being determined of the method of Bradford [Bradford, M., Anal. Biochem., 72, 248 (1976)]. […]
Binding Assay: Frozen membranes prepared as above are thawed and diluted to 1 mg protein per ml in Buffer A above. […] To determine the amount of ^3H-prostaglandin bound to the membranes, the dried filters are placed into plastic bags with scintillation fluid and counted in a LKB 1205 Betaplate reader (Wallac, Gaithersburg, Md.). […]

[2] = tested on: Human hepatocytes; assay: Metabolism of parent in human hepatocytes; assay type: in vitro ADME; details: 20 μM parent, 2 million cells per ml, 4 hours, 37° C.; mobile phase pH 5.0
Protocol: Human hepatocytes were generated from a mix of 3 livers. Rat and monkey hepatocytes were generated using Sprague Dawley rats (12 livers), Cynomolgus monkey (1 liver) and Beagle dogs (2 livers). Cryopreserved hepatocytes were suspended in William's E media with 10% FBS to a viable count of 2 million cells per ml and gassed with 95/5 O2/CO2 initially and every hour of incubations. After the addition of 20 μM (3-{[4-tert-butyl-benzyl)-(pyridine-3-sulfonyl)-amino]-methyl}-phenoxy)-acetic acid to a 25 ml Erlenmeyer flask, 2.5 ml of hepatocytes suspension was added and incubated for 4 hours at 37° C. in a shaking water bath.
Metabolite quantification was performed by measuring the areas of individually separated HPLC peaks using the β-RAM (IN/US, Win-flow). The β-RAM provided integrated peak representation printouts in CPM as well as the percentage of the radiolabeled material. The β-RAM was operated using a solid scintillation cell. […]
Identification of the metabolites was performed using a Finnigan TSQ 7000 triple quadrupole mass spectrometer equipped with an API-2 electrospray interface. […] The β-RAM response was recorded as a real time analog signal by the MS data collection system. The collected data from the radioactivity and MS detectors were separated by the dwell volume of flow from the MS to the radioactivity detector (corresponding to a dwell time of about 0.2 min.). […]

T1 sequence (Q62928 whole entry): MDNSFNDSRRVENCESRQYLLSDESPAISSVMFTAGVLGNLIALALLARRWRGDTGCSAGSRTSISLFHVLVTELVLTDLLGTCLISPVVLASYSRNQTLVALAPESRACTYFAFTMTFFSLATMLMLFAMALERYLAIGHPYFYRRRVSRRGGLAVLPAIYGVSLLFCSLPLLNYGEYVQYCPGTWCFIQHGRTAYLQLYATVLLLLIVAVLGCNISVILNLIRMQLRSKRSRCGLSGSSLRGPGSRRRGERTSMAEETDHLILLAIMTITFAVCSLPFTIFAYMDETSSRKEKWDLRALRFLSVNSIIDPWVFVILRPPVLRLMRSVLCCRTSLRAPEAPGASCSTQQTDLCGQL

## CC(C)(CO)c1ccc(CN(Cc2cccc(OCC(=O)O)c2)S(=O)(=O)c2cccnc2)cc1 [Metabolite M4, (3-{[[4-(2-hydroxy-1,1-dimethyl-ethyl)-benzyl]-(pyridine-3-sulfonyl)-amino]-methyl}-phenoxy)-acetic acid]
[1]
  IC50: 170 nM
[2]
  Percent of Radioactivity, Human hepatocytes: 41.2%

Source: patent publication US6852863B2, “Metabolites of (3-{[4-tert-butyl-benzyl)-(pyridine-3-sulfonyl)-amino]-methyl}-phenoxy)-acetic acid” (Pfizer Inc., priority 2002, dated 2005)
